≈ marks a conversion by molar mass, not a printed value. Counter-ions that a name gives are not always drawn. Like-named read-outs stand apart in the source and are kept apart here. Non-standard residues stand in square brackets, D forms with d. Residues, ends and D or L forms follow the SMILES beside them. Phe(4-Cl) = N[C@@H](Cc1ccc(Cl)cc1)C(=O)O; dPhe(4-Cl) = N[C@H](Cc1ccc(Cl)cc1)C(=O)O; d2Nal = N[C@H](Cc1ccc2ccccc2c1)C(=O)O; d(hCit) = NC(=O)NCCCC[C@@H](N)C(=O)O; Lys(iPr) = CC(C)NCCCC[C@H](N)C(=O)O; d3Pal = N[C@H](Cc1cccnc1)C(=O)O
How the values were obtained:
[1] = Phase I study D-84812-Z012, single s.c. injection: pharmacokinetics of teverelix; type: in vivo, human
[2] = Phase I study D-84812-Z012, single s.c. injection: safety and tolerability; type: in vivo, human; settings: doses up to 90 mg, 32 healthy male volunteers
[3] = Phase II study 2 x 90 mg i.m. Days 1 and 8 (A014): plasma PK of teverelix; type: in vivo; settings: male, human, im; for AUC(0-t) / Cmax / Tmax / AUC(0-inf) / half-life: 90 mg; for AUC(0-t): N=14, read-out: AUC (0-t) Geometric mean; for Cmax: N=14, read-out: Cmax (obs) Geometric mean; for Tmax: N=14, read-out: Tmax (obs) Median
Protocol: In order to test the hypothesis that and IM injection of a GnRH antagonist could be useful as part of a prostate cancer regimen, a Phase II Multicenter, Open-label Study Investigating the Pharmacokinetics, Pharmacodynamics, Efficacy and Safety of a Teverelix 90 mg, TFA formulation was conducted.
(§1) The primary objective was to assess the duration of action of an initial “loading” dose regimen of Teverelix TFA delivered IM in terms of suppression of testosterone to below castrate level (0.5 ng/mL [2 nmol/L]). The secondary objectives were to assess the pharmacodynamics of teverelix in terms of ability to suppress and to maintain plasma testosterone levels below castration level (<0.5 ng/mL [2 nmol/L]) for 3 weeks; to assess the effects on luteinising hormone (LH) and prostate specific antigen (PSA); and to assess the safety of Teverelix in terms of incidence of local and systemic tolerability (adverse events [AEs] and changes in laboratory parameters).
(§2) This was a multicenter, open-label, non-controlled study in 14 patients diagnosed with advanced prostate cancer. Patients were screened for inclusion in the study between 1 and 7 days before first administration. Each patient received 2 intramuscular (i.m.) injections of 90 mg Teverelix TFA, 7 days apart, on Study Days 1 and 8. […] Blood samples were taken for the evaluation of teverelix, testosterone and LH in plasma, and PSA levels. Safety and tolerability were assessed throughout the study by monitoring local and systemic tolerability (AEs, clinical laboratory tests, vital signs an electrocardiogram [ECG]).
The geometric means for Cmax(obs), AUC(0-t), and AUC(0-∞) (along with respective coefficients of variations presented in parenthesis); Tmax median (along with the range of Tmax values presented in parenthesis); and arithmetic mean for T1/2,elim (along with standard deviation presented in parenthesis) are presented in Table 1 for each dose of teverelix IM.
The combined geometric means for AUC and AUC(∞) (along with respective coefficients of variations presented in parenthesis); and arithmetic mean for apparent clearance (CL/F) (along with standard deviation presented in parenthesis) for the two i.m. doses of teverelix are presented in Table 2.

[4] = Phase II study 2 x 90 mg i.m. (A014): tolerability; type: in vivo, human; settings: A014: i.m. 90 mg day 1 and 8
Protocol: as §1, §2
(§3) Comparison of s.c. injection 90 mg days 1, 2 and 3 vs. IM injection day 1 and 8.

[5] = Phase I study EP-24332T-A004, repeated s.c. injections: tolerability; type: in vivo, human; settings: 2 doses of 60 mg or 90 mg s.c. at 24 h or 48 h interval
Protocol: In a second Phase I study (EP-24332T-A004), a second injection was administered 24 h or 48 h after the first in order to increase and prolong the initial peak, as well as increase the teverelix level and consequently the number of subjects castrated. As the previous Phase I study had shown 10 mg and 30 mg to be insufficient to provide a long-term suppression, 2 doses of 60 mg or 90 mg (6 subjects per group) or placebo (4 subjects) were administered at a 24 h interval and 2 doses of 90 mg at a 48 h interval. […] No critical safety findings were reported. […] The protocol of the study included 6 subjects who received 90 mg Teverelix TFA on D1; D2; D3.

[6] = Clinical study A013, s.c. injection 90 mg days 1, 2 and 3: tolerability; type: in vivo, human; settings: A013: s.c. 90 mg days 1, 2 and 3
Protocol: as §3

[7] = compared with degarelix; cited from earlier work
[8] = Water solubility of teverelix; type: physicochemical
Protocol: In some instances, the GnRH antagonist can be teverelix ((Ac-D-NaID-pClPhe-D-Pal-Ser-Tyr-D-Hci-Leu-Lys(iPr)-Pro-D-Ala-NH2). Teverelix is a synthetic decapeptide with a water solubility of approximately 10 mg/mL.

Row | dose proportionality ([1]; between the 60 mg and 90 mg doses, single s.c.) | half-life ([1]; human, plasma, sc, single s.c. injection, doses up to 90 mg, healthy male volunteers) [h] | AUC(0-t) ([3]; Day 1 (Dose 1): 1 x 90 mg i.m.) [µg·h/mL] | Cmax ([3]; Day 1 (Dose 1): 1 x 90 mg i.m.) [µg/mL] | Tmax ([3]; Day 1 (Dose 1): 1 x 90 mg i.m.) [h] | AUC(0-inf) ([3]; Day 1 (Dose 1): 1 x 90 mg i.m., n = 8, read-out: AUC (0-∞) Geometric mean) [µg·h/mL] | half-life ([3]; Day 1 (Dose 1): 1 x 90 mg i.m., n = 8, read-out: T1/2,elim Arithmetic mean (converted)) [h] | AUC(0-t) ([3]; Day 8 (Dose 2): 1 x 90 mg i.m.) [µg·h/mL] | AUC(0-inf) ([3]; Day 8 (Dose 2): 1 x 90 mg i.m., N=14, read-out: AUC (0-∞) Geometric mean) [µg·h/mL] | Cmax ([3]; Day 8 (Dose 2): 1 x 90 mg i.m.) [µg/mL] | half-life ([3]; Day 8 (Dose 2): 1 x 90 mg i.m., N=14, read-out: T1/2,elim Arithmetic mean (converted)) [h] | Tmax ([3]; Day 8 (Dose 2): 1 x 90 mg i.m.) [h] | CL/F ([3]; 2 x 90 mg i.m., N=14, read-out: CL/F Arithmetic mean (converted)) [mL/min] | solubility [8] [mg/mL] | SMILES | tolerability [2] | tolerability [4] | local reactions at the injection sites [5] | tolerability [5] | tolerability [6] | local irritation at the administration site [7]
1 | Dose proportionality was demonstrated | 252 to 331 | 1.73 | 0.0215 | 2 | 4.61 | 167 | 8.36 | 9.38 | 0.038 | 404 | 1 | 249 | – | CC(=O)N[C@H](Cc1ccc2ccccc2c1)C(=O)N[C@H](Cc1ccc(Cl)cc1)C(=O)N[C@H](Cc1cccnc1)C(=O)N[C@@H](CO)C(=O)N[C@@H](Cc1ccc(O)cc1)C(=O)N[C@H](CCCCNC(N)=O)C(=O)N[C@@H](CC(C)C)C(=O)N[C@@H](CCCCNC(C)C)C(=O)N1CCC[C@H]1C(=O)N[C@H](C)C(N)=O [Teverelix TFA, teverelix trifluoroacetate] (Ac-[d2Nal][dPhe(4-Cl)][d3Pal]SY[d(hCit)]L[Lys(iPr)]P[dA]-NH2) | tolerated well | Very good/good for all patients | – | – | – | –
2 | – | – | – | – | – | – | – | – | – | – | – | – | – | ~10 (≈ 6.85 mM) | CC(=O)N[C@H](Cc1ccc2ccccc2c1)C(=O)N[C@@H](Cc1ccc(Cl)cc1)C(=O)N[C@H](Cc1cccnc1)C(=O)N[C@@H](CO)C(=O)N[C@H](Cc1ccc(O)cc1)C(=O)N[C@H](CCCCNC(N)=O)C(=O)N[C@@H](CC(C)C)C(=O)N[C@@H](CCCCNC(C)C)C(=O)N1CCC[C@H]1C(=O)N[C@H](C)C(N)=O [teverelix, Ac-D-NaID-pClPhe-D-Pal-Ser-Tyr-D-Hci-Leu-Lys(iPr)-Pro-D-Ala-NH2] (Ac-[d2Nal][Phe(4-Cl)][d3Pal]S[dY][d(hCit)]L[Lys(iPr)]P[dA]-NH2) | – | – | only mild local indurations at the injection sites | tolerated well | Very good/good for all patients | less local irritation at the administration site than degarelix
